Source: PMC10096391, “Discovery of N,4-Di(1H-pyrazol-4-yl)pyrimidin-2-amine-Derived CDK2 Inhibitors as Potential Anticancer Agents: Design, Synthesis, and Evaluation” (Molecules, 2023)

Columns and labels:
A2780 cells [1] = experiment: Colony formation (crystal violet), A2780; format: cell-based; details: A2780, 10 days; 15 at 0.5 and 2 µM, CYC065 at 0.5 µM
Protocol: (§1) Briefly, ovarian cancer cells (i.e., A2780, OVCAR5, and OV90) seeded in six-well plates were adhered for 6 h and treated with 15. The medium that contained the compound was then changed every 72 h. Ten days after treatment, the cells were washed with PBS, fixed, and stained with crystal violet staining solution (0.05% crystal violet, 1% formaldehyde, 1% PBS, and 1% ethanol), and colonies were quantified using ImageJ software (National Institute of Health, Maryland, USA), with data presented as percentages of the control cells.

A2780 cells [2] = experiment: Annexin V/PI apoptosis assay, A2780; format: cell-based; details: 48 h
Protocol: Annexin V-fluorescein isothiocyanate (FITC) apoptosis detection kit I (consisting of a ten-time stock solution of binding buffer, FITC–annexin V, and PI staining solution) was used to determine the effect of the compounds on cancer cell survival as previously reported. Briefly, six-well plates (Sigma-Aldrich, NSW, Australia) were seeded with about 1–2 × 10^5 cells/well in 2 mL growth medium, incubated at 37 °C and 5% CO2 overnight, treated with various concentrations of the test compounds, and incubated for 48 h. The wells were collected by trypsinization, transferred into FACS tubes, washed twice with 1 × PBS, and centrifuged at 300× g for 5 min. The pellets were then suspended in 100 µL of 1 × binding buffer and incubated in the dark with 3 µL of PI and 3 µL of FITC-conjugated annexin V solutions for 15 min. Finally, 200 µL of binding buffer was added to each sample and analyzed by the CytoFLEX cytometer. The extent of apoptotic cell death was quantified as the sum of the percentages of early apoptotic cells (annexin V-positive and PI-negative) and late apoptotic cells (both annexin–V- and PI-positive) and presented graphically as a contour diagram relative to the untreated control.

[3] = system: panel of 13 cancer cell lines; experiment: Antiproliferative activity, cancer cell line panel; format: cell-based; details: all cancer cell lines tested; read-out: GI50 range over the cancer cell line panel
Description: (§2) Cancer cell lines derived from leukemia (MV4-11 and U937), breast (MCF7 (Rb-positive) and MDA-MB-231(Rb-negative)), and ovarian (A2780, OVCAR5, OAW28, OV90, Cov318, and Cov504) cancers, and glioblastoma (U87, T98G and U251) were acquired from the cell bank at Drug Discovery and Development, University of South Australia, and cultured according to the American Type Culture Collection (ATCC) recommendation in Roswell Park Memorial Institute (RPMI)-1640, Dulbecco’s Modified Eagle’s Medium (DMEM), or Minimum Essential Media (MEM), with 10% fetal bovine serum (Sigma-Aldrich, Castle Hill, NSW, Australia) within a humidified incubator at 37 °C in the presence of 5% CO2.
(§3) The MTT (Life Technologies, Mulgrave, VIC, Australia) and resazurin (Sigma-Aldrich) assays were used to determine the antiproliferative activities of the compounds initially at 1 µM against the cancer cell lines stated above.

U937 leukemia cells = experiment: Cell viability assay (MTT/resazurin), U937; format: cell-based; details: Homo sapiens, U-937, read-out: Antiproliferative Activity, GI50
Description: as §2, §3

CDK1/cyclin B (CDK1B) = CDK1/cyclin B (CDK1B) (Homo sapiens, UniProt P06493); experiment: ADP-Glo kinase assay, CDK1/cyclin B; format: biochemical; details: apparent Ki from IC50, ADP-Glo
Protocol: The luminescent ADP-Glo™ assay, which measures the amount of ADP formed in a kinase reaction as described previously, was used to determine the kinase inhibition profile of the compounds. […] Ki values were calculated from their corresponding IC50 values (the concentrations of inhibitors that inhibit the kinase activity by 50%) and the Michaelis–Menten constant (Km) of ATP for each kinase using the Cheng–Prusoff equation as previously stated. In brief, 1 μL of each concentration of the test compounds was added to the respective wells, and to it were added 1 μL of the kinases and their respective substrates, diluted to the desired concentration in kinase reaction buffer ([…] tris base pH 7.5, 20 mM MgCl2, 0.4 µM dithiothreitol, and 0.1 mg/mL bovine serum albumin), and the pH was adjusted by adding 1 μL of a two-fold diluted kinase reaction buffer. To initiate the kinase activity, 1 μL of ATP solution (the concentration varies depending on the type of kinase under investigation) was added to each well, and the mixture was incubated at room temperature (20 to 22 °C) for 30–60 min depending on the kinase being tested. The reaction was then halted, 5 μL of the ADP-Glo reagent was added to each well (removing any unreacted ATP), and it was incubated at room temperature for 40 min. Then, to each well, 10 μL of the kinase detection reagent containing luciferin was added, which was incubated once more at room temperature in the dark for 30 min and the luminescence was measured by an EnVision® multi-label plate reader with an integration time of 1.5 s per well. Positive controls (the wells without the inhibitor) and negative or blank controls (the wells without the inhibitor and the enzyme, but with 1 × kinase reaction buffer) were also determined in 2.5% DMSO.
The percentage of kinase inhibition was determined using the following equation: % Residual kinase activity=Luminescence in the presence of inhibitor−Luminescence of blank control/Luminescence in the absence of inhibitor−Luminescence of blank control×100%%kinase inhbition=100%−%Residual kinase activity
Km is defined as the concentration of ATP or the substrate required to produce 50% of the maximal reaction rate in the kinase reaction. Therefore, since we used the concentration of ATP and the substrate at their Km values, Ki simply equals IC50/2 assuming these inhibitors are ATP-competitive based on the Cheng–Prusoff equation: Ki = IC50/(1 + ([ATP]/Km(ATP))) where [ATP] is the ATP concentration used for the IC50 determination and Km(ATP) for each kinase was determined experimentally.

OVCAR5 cells [4] = experiment: Western blot analysis of OVCAR5 cells; format: cell-based
Protocol: Western blot analysis of the compounds was carried out as previously reported. The antibodies were purchased from Cell Signaling Technology (Danvers, MA, USA).

[5] = system: A2780 ovarian cancer cells; experiment: 72 h MTT antiproliferative assay, A2780; format: cell-based; details: Homo sapiens, A2780; 72 h MTT
Description: as §2, §3

OV90 cells = experiment: Colony formation (crystal violet), OV90; format: cell-based; details: OV90, 10 days
Protocol: as §1

OVCAR5 cells [6] = experiment: Colony formation (crystal violet), OVCAR5; format: cell-based; details: OVCAR5, 10 days; 15 at 0.5 and 2 µM, CYC065 at 0.5 µM
Protocol: as §1

[7] = system: MDA-MB-231 breast cancer cells; experiment: Cell viability assay (MTT/resazurin), MDA-MB-231; format: cell-based; details: Homo sapiens, read-out: Antiproliferative Activity, GI50
Description: as §2, §3

MCF7 breast cancer cells = experiment: Cell viability assay (MTT/resazurin), MCF7; format: cell-based; details: Homo sapiens, read-out: Antiproliferative Activity, GI50
Description: as §2, §3

Sequence of CDK1/cyclin B (CDK1B) (P06493 whole entry): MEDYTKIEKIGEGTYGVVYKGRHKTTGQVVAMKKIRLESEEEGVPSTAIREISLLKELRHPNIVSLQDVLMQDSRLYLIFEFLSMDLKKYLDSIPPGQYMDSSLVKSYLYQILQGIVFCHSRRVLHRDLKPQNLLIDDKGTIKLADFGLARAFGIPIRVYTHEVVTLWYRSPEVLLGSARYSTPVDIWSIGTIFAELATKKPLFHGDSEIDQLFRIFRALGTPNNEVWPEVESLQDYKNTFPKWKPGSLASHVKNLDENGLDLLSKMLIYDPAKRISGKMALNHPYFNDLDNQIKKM
Sequence of CDK1/cyclin B (CDK1B) (P14635 whole entry partner): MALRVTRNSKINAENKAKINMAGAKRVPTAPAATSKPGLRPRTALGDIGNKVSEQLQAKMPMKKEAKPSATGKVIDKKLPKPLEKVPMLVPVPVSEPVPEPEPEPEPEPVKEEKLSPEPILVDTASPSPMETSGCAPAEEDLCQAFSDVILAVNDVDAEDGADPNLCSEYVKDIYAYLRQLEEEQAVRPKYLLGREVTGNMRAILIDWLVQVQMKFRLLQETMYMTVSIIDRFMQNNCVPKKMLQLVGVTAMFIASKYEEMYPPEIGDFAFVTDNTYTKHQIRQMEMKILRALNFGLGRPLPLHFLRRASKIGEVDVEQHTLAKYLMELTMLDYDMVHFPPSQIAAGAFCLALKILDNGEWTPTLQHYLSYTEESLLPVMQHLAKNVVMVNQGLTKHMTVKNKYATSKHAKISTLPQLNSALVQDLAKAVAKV

Cn1cc(-c2nc(Nc3cn[nH]c3)ncc2Cl)cn1 [Compound 15, 5-Chloro-4-(1-methyl-1H-pyrazol-4-yl)-N-(1H-pyrazol-4-yl)pyrimidin-2-amine]
effect on colony formation (A2780 cells [1]): inhibited
apoptosis (annexin V positive, early + late) (A2780 cells [2]; A2780, 0.5 µM): 47%
apoptosis (annexin V positive, early + late) (A2780 cells [2]; A2780, 2 µM): 49%
viability at 0.5 µM (A2780 cells [2]; Homo sapiens, A2780, 0.5 µM, read-out: Q1-LL, viable cells): 52.7%
viability at 2 µM (A2780 cells [2]; Homo sapiens, A2780, 2 µM, read-out: Q1-LL, viable cells): 50.5%
GI50 [3]: 127 to 560 nM
GI50 (U937 leukemia cells): 186 nM
Ki (CDK1/cyclin B (CDK1B)): 25 nM
p-FAK(Ser732) level (CDK5 kinase activity in cells) (OVCAR5 cells [4]; OVCAR5, 2 µM, 48 h): completely abolished
p-RNAPol-II(Ser2) level (CDK9 kinase activity in cells) (OVCAR5 cells [4]; OVCAR5, 2 µM, 48 h): completely abolished
p-Rb(Thr821) level (CDK2 kinase activity in cells) (OVCAR5 cells [4]; OVCAR5, 2 µM, 48 h): completely abolished
anti-apoptotic protein MCL1 (OVCAR5 cells [4]; OVCAR5, 48 h): downregulation
caspase-3 (OVCAR5 cells [4]; OVCAR5, 48 h): cleavage
phosphorylated histone H2AX (p-H2AX), DNA damage marker (OVCAR5 cells [4]; OVCAR5, 48 h): appearance
GI50 [5]: 158 nM
effect on colony formation (OV90 cells; 0.5 µM): partial inhibition
effect on colony formation (OV90 cells; 15 at 0.5 and 2 µM, CYC065 at 0.5 µM): inhibited
effect on colony formation (OVCAR5 cells [6]): inhibited
GI50 [7]: 458 nM
GI50 (MCF7 breast cancer cells): 342 nM
